Source: patent US10239880B2, “Cyclopenta[d]pyrimidines and substituted cyclopenta[d]pyrimidines as antitubulin and microtubule targeting agents, monocyclic pyrimidines as tubulin inhibitors, and pyrrolopyrimidines as targeted antifolates and tubulin and multiple receptor tyrosine kinase inhibition and antitumor agents” (Duquesne University of the Holy Spirit, priority 2015, dated 2019)
Structures can show the parent of a compound that is named as a salt. Where two headings read alike, the source gives them in different places. Values belong to the compound of their own block, whether it stands above or below them.

Experiments:
[1] = system: A-10 cells; experiment: Microtubule depolymerization, cell-based phenotypic assay in A-10 cells
[2] = system: MDA-MB-435 cancer cells; experiment: Antiproliferative effect in MDA-MB-435 cancer cells (SRB assay); format: cell-based
[3] = system: Parental SK-OV-3; experiment: Antiproliferative activity, parental SK-OV-3; format: cell-based; settings: Homo sapiens, Table 6, read-out: IC50 ± SD Parental SK-OV-3
[4] = system: β-III overexpressing HeLa; experiment: Antiproliferative activity, β-III overexpressing HeLa; format: cell-based; settings: Homo sapiens, HeLa; Table 7; read-out: IC50 ± SD β-III overexpressing HeLa
Description: (§1) Another clinically relevant drug resistance mechanism of tubulin-targeting agents is the overexpression of the βIII isotype of tubulin.

[5] = system: Pgp expressing SK-OV-3 MDR1-6-6; experiment: Antiproliferative activity, Pgp expressing SK-OV-3 MDR1-6-6; format: cell-based; settings: Homo sapiens, SK-OV-3; Table 6; read-out: IC50 ± SD Pgp expressing SK-OV-3 MDR1-6-6
[6] = system: Parental HeLa; experiment: Antiproliferative activity, parental HeLa; format: cell-based; settings: Homo sapiens, Table 7, read-out: IC50 ± SD Parental HeLa
Description: as §1

[7] = system: CAM; experiment: CAM (gi50); settings: Table 3b; unit inferred
[8] = system: A431; experiment: A431 cytotoxicity; settings: Homo sapiens
[9] = biological target: EGFR (Homo sapiens, UniProt P00533); experiment: Kinase inhibition, whole-cell assay, EGFR; format: cell-based
[10] = biological target: PDGFR-β (Homo sapiens, UniProt P09619); experiment: Kinase inhibition, whole-cell assay, PDGFR-β; format: cell-based
[11] = system: U251; experiment: U251 cytotoxicity; format: cell-based; settings: Homo sapiens, U-251; Table 3b; unit inferred
[12] = biological target: VEGFR2 (Homo sapiens, UniProt P35968); experiment: Kinase inhibition, whole-cell assay, VEGFR2 (Flk-1); format: cell-based; settings: Table 3b; unit inferred
[13] = system: KB (RFC/FRα/PCFT); experiment: Growth inhibition of KB tumor cells; format: cell-based, human
Experimental: Cell proliferation was assayed with CellTiter-Blue™ with a fluorescent plate reader.

[14] = system: RT16 (FRα); experiment: Proliferation inhibition, FRα-expressing RT16 cells; format: cell-based, Chinese hamster; settings: with folic acid (+FA); read-out: IC50 FRα RT16 (+FA)
Description: (§2) AGF215, AGF234 and AGF263 were compared to AGF23 as inhibitors of proliferation of engineered Chinese hamster ovary (CHO) cells expressing human PCFT (R2/PCFT4), FRα (RT16), or RFC (PC43-10).

[15] = system: D4 (FRβ); experiment: Proliferation inhibition, FRβ-expressing D4 cells; format: cell-based
[16] = system: PC43-10 (RFC); experiment: Proliferation inhibition, RFC-expressing PC43-10 cells; format: cell-based, Chinese hamster; settings: Table 11
Description: as §2

[17] = system: MDA-MB-435 xenograft; experiment: MDA-MB-435 xenograft trial; settings: IP 75 mg/kg; for adverse effects / toxicity in xenograft trial: cumulative dosing
[18] = Rattus norvegicus, A10, read-out: EC50 in A-10 cells (Concentration that causes 50% tubulin loss in A-10 cells), Table 4, Section II compounds
[19] = A-431, read-out: A431 cytotoxicity, Table 3b, unit inferred
[20] = Rattus norvegicus, A10, Table 3a, unit inferred, read-out: EC50 for Microtubule Depolymerization in A · 10 Cells
[21] = Table 3b, unit inferred, read-out: EGFR kinase inhibition
[22] = Homo sapiens, Table 3a, unit inferred, read-out: IC50 ± SD in MDA-435 Cells
[23] = Table 3b, unit inferred, read-out: PDGFR kinase inhibition
[24] = Table 11, read-out: IC50 RFC/FRα/PCFT KB
[25] = with folic acid (+FA), read-out: IC50 RFC/FRα/PCFT KB (+FA)
[26] = Table 3a, unit inferred, read-out: EC50 for Microtubule Depolymerization in A · 10 Cells
[27] = Table 3a, unit inferred, read-out: IC50 ± SD in MDA-435 Cells
[28] = A-431, read-out: A431 cytotoxicity, Table 1, IC50 ± SD
[29] = Rattus norvegicus, A10, read-out: Microtubule depolymerization EC50
[30] = Table 1, IC50 ± SD, read-out: Kinase inhibition IC50 [whole-cell assays] EGFR
[31] = Homo sapiens, MDA-MB-435, read-out: MDA-MB-435 IC50
[32] = Table 1, IC50 ± SD, read-out: Kinase inhibition IC50 [whole-cell assays] PDGFR-β

EGFR, sequence (P00533 25-1210, species assumed): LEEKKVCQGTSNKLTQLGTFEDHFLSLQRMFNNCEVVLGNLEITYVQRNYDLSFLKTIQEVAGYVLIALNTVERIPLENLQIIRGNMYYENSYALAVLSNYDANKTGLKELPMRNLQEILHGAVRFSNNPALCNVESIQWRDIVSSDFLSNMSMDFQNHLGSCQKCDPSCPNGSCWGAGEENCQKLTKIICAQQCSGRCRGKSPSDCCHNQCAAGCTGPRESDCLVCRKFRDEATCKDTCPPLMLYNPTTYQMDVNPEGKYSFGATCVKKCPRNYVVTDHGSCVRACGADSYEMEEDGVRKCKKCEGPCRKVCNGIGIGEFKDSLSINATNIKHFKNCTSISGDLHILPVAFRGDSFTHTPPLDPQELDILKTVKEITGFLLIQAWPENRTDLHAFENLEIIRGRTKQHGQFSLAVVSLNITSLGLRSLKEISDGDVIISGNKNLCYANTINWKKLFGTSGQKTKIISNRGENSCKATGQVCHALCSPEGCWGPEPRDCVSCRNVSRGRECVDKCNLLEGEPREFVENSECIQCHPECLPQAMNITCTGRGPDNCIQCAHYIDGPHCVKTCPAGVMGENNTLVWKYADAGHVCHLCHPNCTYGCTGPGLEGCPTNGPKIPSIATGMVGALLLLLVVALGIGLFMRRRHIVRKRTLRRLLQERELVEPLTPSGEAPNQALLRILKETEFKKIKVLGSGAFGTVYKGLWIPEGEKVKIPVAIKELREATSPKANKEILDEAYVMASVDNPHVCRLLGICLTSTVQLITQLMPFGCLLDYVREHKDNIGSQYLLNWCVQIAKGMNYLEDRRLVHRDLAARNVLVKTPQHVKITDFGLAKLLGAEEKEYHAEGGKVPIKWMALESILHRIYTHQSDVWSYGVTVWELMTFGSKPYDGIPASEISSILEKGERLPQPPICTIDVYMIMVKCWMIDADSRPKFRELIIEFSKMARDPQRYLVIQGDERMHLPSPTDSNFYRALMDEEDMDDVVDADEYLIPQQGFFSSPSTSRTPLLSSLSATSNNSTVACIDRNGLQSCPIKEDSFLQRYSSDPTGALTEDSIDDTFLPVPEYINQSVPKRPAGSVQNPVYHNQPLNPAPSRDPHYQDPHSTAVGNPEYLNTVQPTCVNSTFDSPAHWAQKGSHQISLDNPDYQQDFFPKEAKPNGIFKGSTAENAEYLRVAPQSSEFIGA
PDGFR-β, sequence (P09619 33-1106, species assumed): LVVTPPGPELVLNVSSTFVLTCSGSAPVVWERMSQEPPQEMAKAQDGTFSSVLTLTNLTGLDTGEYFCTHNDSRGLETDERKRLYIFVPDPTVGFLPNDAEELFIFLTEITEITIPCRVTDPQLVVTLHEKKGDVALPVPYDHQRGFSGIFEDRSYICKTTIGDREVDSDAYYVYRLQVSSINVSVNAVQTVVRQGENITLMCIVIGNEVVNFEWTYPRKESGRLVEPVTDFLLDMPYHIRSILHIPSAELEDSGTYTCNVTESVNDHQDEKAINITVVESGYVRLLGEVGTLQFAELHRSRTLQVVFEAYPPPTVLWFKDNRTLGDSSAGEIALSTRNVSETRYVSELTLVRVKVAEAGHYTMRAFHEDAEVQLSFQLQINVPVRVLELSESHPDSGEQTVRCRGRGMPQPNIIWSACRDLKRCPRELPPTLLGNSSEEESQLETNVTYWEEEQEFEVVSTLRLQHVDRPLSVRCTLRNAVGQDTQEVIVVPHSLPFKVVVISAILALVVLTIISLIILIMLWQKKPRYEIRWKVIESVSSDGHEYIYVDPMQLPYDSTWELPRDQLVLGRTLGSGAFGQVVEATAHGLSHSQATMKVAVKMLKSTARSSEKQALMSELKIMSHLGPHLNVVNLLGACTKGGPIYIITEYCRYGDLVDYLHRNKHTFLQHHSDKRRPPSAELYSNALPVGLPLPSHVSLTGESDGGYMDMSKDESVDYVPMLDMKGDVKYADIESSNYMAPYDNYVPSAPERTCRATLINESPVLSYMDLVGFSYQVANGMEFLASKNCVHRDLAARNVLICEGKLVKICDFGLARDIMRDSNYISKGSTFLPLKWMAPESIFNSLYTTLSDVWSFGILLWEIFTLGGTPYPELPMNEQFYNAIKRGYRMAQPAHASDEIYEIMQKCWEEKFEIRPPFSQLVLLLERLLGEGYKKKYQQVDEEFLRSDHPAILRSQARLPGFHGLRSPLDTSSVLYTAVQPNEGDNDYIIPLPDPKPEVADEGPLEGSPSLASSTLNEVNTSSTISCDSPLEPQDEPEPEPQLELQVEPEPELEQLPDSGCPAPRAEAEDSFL
VEGFR2, sequence (P35968 20-1356, species assumed): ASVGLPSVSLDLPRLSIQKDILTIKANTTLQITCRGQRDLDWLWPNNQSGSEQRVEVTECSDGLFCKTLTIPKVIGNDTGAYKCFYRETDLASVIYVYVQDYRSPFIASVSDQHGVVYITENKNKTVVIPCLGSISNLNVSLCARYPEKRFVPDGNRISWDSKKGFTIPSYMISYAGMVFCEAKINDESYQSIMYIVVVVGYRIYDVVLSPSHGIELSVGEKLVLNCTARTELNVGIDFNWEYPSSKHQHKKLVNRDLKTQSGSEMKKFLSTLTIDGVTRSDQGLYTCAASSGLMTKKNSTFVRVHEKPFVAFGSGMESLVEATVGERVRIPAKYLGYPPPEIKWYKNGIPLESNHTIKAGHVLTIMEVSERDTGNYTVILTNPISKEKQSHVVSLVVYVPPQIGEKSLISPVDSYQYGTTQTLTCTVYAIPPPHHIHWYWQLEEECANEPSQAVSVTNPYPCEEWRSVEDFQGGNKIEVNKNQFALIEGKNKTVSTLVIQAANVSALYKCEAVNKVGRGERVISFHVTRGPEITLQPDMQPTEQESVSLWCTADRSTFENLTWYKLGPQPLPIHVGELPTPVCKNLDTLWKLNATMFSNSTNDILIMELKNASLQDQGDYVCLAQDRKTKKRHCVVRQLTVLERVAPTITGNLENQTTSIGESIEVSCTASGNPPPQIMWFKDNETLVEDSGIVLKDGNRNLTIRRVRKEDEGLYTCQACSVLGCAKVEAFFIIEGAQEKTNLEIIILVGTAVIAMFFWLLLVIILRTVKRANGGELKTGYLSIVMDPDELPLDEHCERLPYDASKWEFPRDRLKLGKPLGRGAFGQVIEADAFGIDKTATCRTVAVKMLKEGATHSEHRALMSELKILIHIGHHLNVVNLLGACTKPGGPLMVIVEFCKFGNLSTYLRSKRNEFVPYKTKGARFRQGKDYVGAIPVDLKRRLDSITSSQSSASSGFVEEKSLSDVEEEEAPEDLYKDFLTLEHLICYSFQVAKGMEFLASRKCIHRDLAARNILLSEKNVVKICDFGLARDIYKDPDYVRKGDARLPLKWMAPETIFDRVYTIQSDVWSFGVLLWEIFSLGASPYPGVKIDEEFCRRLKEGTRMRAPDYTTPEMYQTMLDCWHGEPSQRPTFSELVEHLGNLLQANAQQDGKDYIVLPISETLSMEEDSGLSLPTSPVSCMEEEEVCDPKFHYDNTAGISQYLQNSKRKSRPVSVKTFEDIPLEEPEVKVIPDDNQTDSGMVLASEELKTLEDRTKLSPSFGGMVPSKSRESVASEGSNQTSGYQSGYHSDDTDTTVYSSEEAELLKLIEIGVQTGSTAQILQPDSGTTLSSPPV

SMILES: COc1ccc2c(c1)CCCN2c1nc(Cl)nc2ccn(C)c12 [Table 3a 23]
GI50 [7]: 7.6 ± 1 nM
IC50 [8, 19]: 3 ± 0.3 nM
EC50 [1, 20]: 3.31 nM
IC50 [9, 21]: 9 ± 0.9 nM
IC50 [2, 22]: 4.1 ± 0.1 nM
IC50 [10, 23]: 8.4 ± 0.8 nM
IC50 [11]: 3.8 ± 0.5 nM
IC50 [12]: 15.2 ± 2 nM

SMILES: Cc1nc2ccc3ccc(CNc4ccc5c(c4)CN([C@@H](CCC(=O)O)C(=O)O)C5=O)cc3c2c(=O)[nH]1 [GW1843U89]
IC50 [13, 24]: 5.8 nM
IC50 [13, 25]: 32 nM

SMILES: Nc1nc2[nH]c(CCCOc3ccc(C(=O)N[C@@H](CCC(=O)O)C(=O)O)cc3)cc2c(=O)[nH]1 [AGF215]
IC50 [13, 24]: 1.54 nM
IC50 [13, 25]: 767 nM
IC50 [14]: > 1000 nM
IC50 ([15]; Table 11, read-out: IC50 FRβ D4): 3.8 nM
IC50 ([15]; with folic acid (+FA), read-out: IC50 FRβ D4 (+FA)): > 1000 nM
IC50 [16]: > 1000 nM
IC50 RFC PC43-10 [16]: inactive

SMILES: CSc1ccc(N(C)c2nc(C)nc3ccn(C)c23)cc1 [5•HCl]
EC50 ([1]; Table 3, read-out: Microtubule depolymerization EC50): 23 nM
IC50 ([2]; Table 3, read-out: MDA-MB-435 IC50): 6.2 ± 1 nM

SMILES: COc1ccc(N(C)c2nc(C)nc3ccn(C)c23)cc1 [2•HCl]
IC50 [8, 28]: 8.8 ± 0.9 nM
IC50 [8, 19]: 107 ± 18 nM
EC50 ([1]; Rattus norvegicus, A10, read-out: EC50 for Microtubule Depolymerization in A · 10 Cells): 7.4 nM
EC50 [1, 29]: 7.4 nM
final average tumor mass compared to the vehicle ([17]; Day 15): statistically significant (p<0.001) lower final average tumor mass
mouse weight change ([17]; compared to the vehicle): recoverable weight loss
adverse effects / toxicity in xenograft trial ([17]; 75 mg/kg): noticeable adverse effects on the central nervous system
adverse effects / toxicity in xenograft trial ([17]; listed as AG 141, 75 mg/kg): severe seizures in two mice
adverse effects / toxicity in xenograft trial ([17]; listed as AG141, 75 mg/kg): unacceptable cumulative CNS toxicities
tumor growth during the trial ([17]; nude mice): inhibited tumor growth
IC50 [9, 30]: 25.2 ± 0.41 nM
IC50 [9, 21]: 89.3 ± 9.2 nM
IC50 [2, 31]: 4.3 ± 0.3 nM
IC50 ([2]; Homo sapiens, read-out: IC50 ± SD in MDA-435 Cells): 4.3 ± 0.3 nM
IC50 [10, 32]: 67 ± 10.2 nM
IC50 [10, 23]: > 200 nM

SMILES: COc1cccc2cc(N(C)c3nc(Cl)nc4ccn(C)c34)ccc12 [Table 3a 15]
EC50 [1, 26]: 50 nM
IC50 [2, 27]: 22.6 nM

SMILES: COc1ccc(N(C)c2nc(C)nc3ccn(C(C)C)c23)cc1.Cl [AG174]
antitumor effects ([17]; MDA-MB-435 xenograft): highly statistically significant (p<0.001) antitumor effects

SMILES: COc1ccc(N(C)c2nc(C)nc3cc[nH]c23)cc1 [1•HCl]
IC50 [8, 28]: 215 ± 30.1 nM
EC50 [1, 29]: 1200 nM
IC50 [9, 30]: 29.5 ± 3.1 nM
IC50 [2, 31]: 96 ± 5.3 nM
IC50 [10, 32]: 250 ± 20.6 nM

SMILES: Nc1nc2[nH]c(CCCSc3ccc(C(=O)N[C@@H](CCC(=O)O)C(=O)O)cc3)cc2c(=O)[nH]1 [AGF263]
IC50 [13, 24]: 0.22 nM
IC50 [13, 25]: 600 nM
IC50 [16]: > 1000 nM
IC50 RFC PC43-10 [16]: inactive

Continued, in another order:

EC50 [1, 18]: > 10000 nM
SMILES: Cc1nc2c(c(N(C)c3ccc(S(C)(=O)=O)cc3)n1)CCC2 [Compd 5]

EC50 [1, 18]: 116 nM
IC50 ([2]; Homo sapiens, MDA-MB-435, Table 4, Section II compounds, SRB assay, read-out: IC50 ± SD (MDA-MB-435) Cancer cells): 15 ± 6.5 nM
IC50 [4]: 14.8 ± 1.5 nM
IC50 [5]: 22.7 ± 2.7 nM
SMILES: CSc1ccc(N(C)c2nc(C)nc3c2CC(C)C3)cc1 (centres unmarked) [Compound 2]
IC50 [3]: 21.2 ± 4 nM
IC50 [6]: 19.6 ± 2 nM

EC50 [1, 20]: 139 nM
IC50 [2, 22]: 49.3 ± 1.1 nM
SMILES: CN(c1ccc(OC(F)(F)F)cc1)c1nc(Cl)nc2ccn(C)c12 [Table 3a 29]

EC50 [1, 26]: > 10000 nM
IC50 [2, 27]: 2000 nM
SMILES: COc1cccc2cc(N(C)c3nc(C)nc4ccn(C)c34)ccc12 [Table 3a 14]

EC50 [1, 18]: > 10000 nM
SMILES: COc1ccc([C@@H](C)N(C)c2nc(C)nc3c2CCC3)cc1 [Compound 11]
